# In US20120035531A1, “ON-DEMAND AND REVERSIBLE DRUG RELEASE BY EXTERNAL CUE” (PRESIDENT AND FELLOWS OF HARVARD COLLEGE, priority 2009, published 2012):
# Assays:
# [1] = In vitro release of encapsulated Mitoxantrone from alginate hydrogel with ultrasound; type: physicochemical
# Protocol: Alginate hydrogels containing 0.825 mg/mL of Mitoxantrone were prepared by mixing alginate aqueous solution with slurries of CaSO4, to a final concentration of 50 mM Ca^2+ and 2% alginate (w/w) polymer. The gel was cast between two glass slides and cut into discs of approximately 10 mm diameter and 2 mm thickness. Thereafter, hydrogels were swollen overnight in the commercially available Dulbecco's Modified Eagle's Medium (DMEM). Hydrogel disks so prepared were next placed in a 15 mL plastic tube with 5 ml of DMEM. One group of the sample hydrogels were subjected to low-frequency ultrasound with frequency of 20 KHz and intensity of 1 watt for 5 min per hour. A further group comprising control hydrogels, similarly prepared, were not subjected to any stimulation. FIGS. 1A and 1B show the power profiles of ultrasound on the two groups of hydrogels.
# MCF7 breast cancer cells = experiment: Bioactivity of ultrasound-released Mitoxantrone: MCF7 cell viability; type: cell-based; conditions: 24 hours, ultrasound-released vs fresh Mitoxantrone solution 0.1 to 20 μg/mL
# Protocol: The bioactivity of the released Mitoxantrone in example 1 was studied by incubating MCF7 breast cancer cells in the Mitoxantrone solution, and measuring the cell viability after 24 hours. Fresh Mitoxantrone solutions (unmixed with polymer) with various concentrations ranging from 0.1 to 20 μg/mL were also used to incubate the same number of MCF7 breast cancer cells.
structure (smiles),measurement,setting,value
O=C1c2c(O)ccc(O)c2C(=O)c2c(NCCNCCO)ccc(NCCNCCO)c21 [Mitoxantrone],level of enhanced release rates across ultrasound pulses,"[1]; 20 KHz, 1 watt, 5 min per hour",all on the same level
same,increase of cumulative release amount,"[1]; 5 min of ultrasound per hour, 20 KHz, 1 watt, vs control hydrogels",~70%
same,increase of release rates by ultrasound stimulation,"[1]; alginate hydrogel 0.825 mg/mL Mitoxantrone in DMEM, 20 KHz, 1 watt, 5 min per hour, vs no stimulation",approximately 10 times
same,rate of release after removing the ultrasound,[1]; alginate hydrogel in DMEM,decayed to negligible levels
same,cell viability,MCF7 breast cancer cells,reduces cell viability by the same amount as a fresh Mitoxantrone solution of equivalent concentration
